In series [1] the test system is Anas platyrhynchos.
Series [2] deals with Apis mellifera. To be noted: acute, mortality.
The subject of series [3] is Bibionidae. To be noted: chronic/long-term; duration: 28 days; development.
Series [4] concerns Colinus virginianus. To be noted: acute; oral; mortality.
Series [5] concerns Daphnia magna. To be noted: chronic/long-term; duration: 21 days; reproduction.
In series [6] the test system is Folsomia candida. To be noted: chronic/long-term; duration: 4 weeks; mortality.
Series [7] has as its system Lepomis macrochirus. To be noted: acute; duration: 96 hours; mortality.
Series [8] has as its system Oryctolagus sp. To be noted: developmental; development.
The subject of series [9] is Pimephales promelas. To be noted: chronic/long-term; reproduction.
Series [10] has as its system Rattus norvegicus. To be noted: acute; oral; mortality.
Series [11] has as its system Tagia sp. To be noted: chronic/long-term; duration: 8 weeks; reproduction.
The subject of series [12] is Aphidius rhopalosiphi. In words: LR50; higher = less toxic. To be noted: acute; mortality.
The subject of series [13] is Typhlodromus pyri. In words: LR50; higher = less toxic. To be noted: acute; mortality.

Usually NOAEL stands for the highest dose or exposure tested at which no adverse effect was seen. As usually defined, the LC50 is the concentration lethal to half of the exposed cells or organisms.

Regarding `COc1cc(OC)nc(NC(=O)NS(=O)(=O)c2c(Cl)nc3ccccn23)n1` [Imazosulfuron], the LD50 is greater than 2250 mg/kg-day in series [1] (acute, oral, unspecified, mortality); greater than 100 µg/piece in series [2] (dermal); greater than 41.6 µg/piece in [2] (oral, unspecified); greater than 2250 mg/kg-day in [4]; greater than 1000 mg/kg-day in [10]. Also, the NOAEL stood at 15.9 mg/kg-day in [1] (reproductive, other) and 50 mg/kg-day in [8]. Also, the NOEC is 490 µg/L in [3]; 0.84 mg/L in series [5]; 1000 mg/kg in [6]; 2.9 mg/L in [9]; 500 mg/kg in [11]. The LC50 in [7] was greater than 74 µg/mL. Further, the LR50 in series [12] and in series [13] was greater than 50 g/ha each time.

The values are drawn from EPA's ToxValDB 9.5 (doi:10.2903/j.efsa.2017.4695).
